The subject of one assay is cavernous nerve. As to the kind of experiment: Intracavernosal pressure (ICP) response to electrostimulation after cavernous nerve crush injury. Type of assay: in vivo, Sprague-Dawley rats. The following applies: for ICP response, Control side: control (intact) side; for ICP response, Control side / ICP response, Crush side: 1 day following R-cavernous nerve crush, i.p., FK506 1 mg/kg, Compound 153 15 mg/kg, +/- sem; for ICP response, Crush side: crush (injured) side. Here is the method:
(§1) Cavernous nerve injury was performed in 12 week old Sprague-Dawley rats by crushing the right cavernous nerve for 3×15 seconds with a fine tip forceps. The rats were treated with saline or Compound 153 (15 mg/kg i.p.) just prior to nerve crush. The right and left major pelvic ganglia were processed for nNOS immunoreactivity. Intracavernosal pressure (ICP) responses to electrostimulation of the right (injured) and left (intact) cavernous nerves were recorded for each animal at 24 hours or 7 days post injury.

The next assay concerns sciatic nerve. To be noted: rats with crushed sciatic nerves; Gold et al. 1994/1995, Steiner et al. 1997; cited from earlier work.
For the next assay, the target named is FKBP12 (Homo sapiens, UniProt P62942). Description: K1 test procedure: inhibition of peptidyl-prolyl isomerase (rotamase) activity of FKBP12, chymotrypsin-coupled assay. Type of assay: biochemical. How it is done:
The inhibition of the prolyl peptidyl cis-trans isomerase activity of FKBP may be measured as an indicator of this affinity.
The cis-trans isomerization of an alanine-proline bond in a model substrate, N-succinyl-Ala-Ala-Pro-Phe-p-nitroanilide, is monitored spectrophotometrically in a chymotrypsin-coupled assay, which releases paranitroanilide from the trans form of the substrate. The inhibition of this reaction caused by the addition of different concentrations of inhibitor is determined, and the data is analyzed as a change in first-order rate constant as a function of inhibitor concentration to yield the apparent K1 values.
In a plastic cuvette are added […] of ice cold assay buffer (25 mM HEPES, pH 7.8, 100 mM NaCl), […] of FKBP (2.5 mM in 10 mM Tris-Cl pH 7.5, 100 mM NaCl, 1 mM dithiothreitol), […] of chymotrypsin (50 mg/ml in 1 mM HCl) and […] of test compound at various concentrations in dimethyl sulfoxide.

The test system of assay [1] is major pelvic ganglia. As to the kind of experiment: nNOS immunoreactivity of right and left major pelvic ganglia after cavernous nerve crush. Type of assay: in vivo, Sprague-Dawley rats. To be noted: FIG. 1; rat right cavernous nerve crush; 15 mg/kg i.p. just prior to nerve crush. How it is done: as §1
For assay [2], the system named is major pelvic ganglia. Description: Cresyl Violet staining of right and left major pelvic ganglia after cavernous nerve crush. Type of assay: in vivo, Sprague-Dawley rats. The following applies: FIG. 2; rat right cavernous nerve crush.
The mark [3] stands for this setting: apparent Ki, rotamase inhibition, Table XLI, Formulas I to XIV, read-out: Ki.
Setting [4] is: relative potency ranking, Table XLII, Formulas XV to XXIV, read-out: Ki.
[5] abbreviates: apparent Ki, rotamase inhibition, Table XLIII, Formulas XXV to XXIX, read-out: K1.

Read-outs that look alike come from different tables or passages of the source.

Chain of FKBP12 (P62942 whole entry, species assumed): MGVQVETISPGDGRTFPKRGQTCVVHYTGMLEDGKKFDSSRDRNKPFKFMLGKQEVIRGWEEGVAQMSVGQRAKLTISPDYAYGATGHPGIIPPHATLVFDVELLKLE

For the compound `C=CC[C@@H]1/C=C(\C)C[C@H](C)C[C@H](OC)[C@H]2O[C@@](O)(C(=O)C(=O)N3CCCC[C@H]3C(=O)O[C@H](/C(C)=C/[C@@H]3CC[C@@H](O)[C@H](OC)C3)[C@H](C)[C@@H](O)CC1=O)[C@H](C)C[C@@H]2OC` [FK506, reference compound], in the assay with cavernous nerve, the “ICP response, Control side” value is listed as 36.9 +/− 7.7 and the “ICP response, Crush side” value is 32.0 +/− 6.7.

As for `CC[C@@H]1/C=C(\C)[C@@H](O)[C@H](C)C[C@H](OC)[C@H]2O[C@@](O)(C(=O)C(=O)N3CCCC[C@H]3C(=O)O[C@H](/C(C)=C/[C@@H]3CC[C@@H](O)[C@H](OC)C3)[C@H](C)[C@@H](O)CC1=O)[C@H](C)C[C@@H]2OC` [L-685,818], the “nerve regeneration and morphological/functional recovery following sciatic nerve crush” value in the assay on sciatic nerve is “as effective as FK506”.

Turning to `O=C(C(=O)N1CCC[C@H]1C(=O)SCCCCc1ccccc1)C1CCCCC1` [compound 33], the Ki on FKBP12 (setting [3]) is 1700 nM.

For the compound `CCC(C)(C)C(=O)C(=O)N1CCC[C@H]1C(=O)SCCCc1cccc2ccccc12` [compound 47], at FKBP12 (setting [3]), the Ki is 21 nM.

As to `CCC(C)(C)C(=O)C(=O)N1CCC[C@H]1C(=O)OCCCc1ccc[n+]([O-])c1` [compound 95], on FKBP12 (setting [3]), the Ki was determined as 225 nM.

As for `CCC(C)CNC(=O)N1CCC[C@H]1C(=O)SCCCc1cccnc1` (stereo partly drawn) [compound 101, 3-(3-Pyridyl)-1-propylmercaptyl 2S-1-[(2-methylbutyl)carbamoyl]pyrrolidine-2-carboxylate], on FKBP12 (setting [4]), the Ki lay in the range of 1 to 50 nM.

Consider `CCC(C)(C)NC(=O)N1CCC[C@H]1C(=O)SCCCc1cccnc1` [compound 102], for which, on FKBP12 (setting [4]), the Ki is 51 to 200 nM.

In the case of `COc1ccc(CCCSC(=O)C2CCCN2C(=S)NC2CCCCC2)cc1` (stereo not shown) [compound 105], the Ki on FKBP12 (setting [4]) was 51 to 200 nM.

`CCC(C)(C)NC(=S)N1CCCC1C(=O)SCCCc1cccnc1` (stereo not shown) [compound 109]: the Ki at FKBP12 (setting [4]) lay within 1 to 50 nM.

Regarding `CCC(C)(C)NC(=O)N1CCCC1C(=O)SCCC(c1ccccc1)c1ccccc1` (stereo not shown) [compound 110], the Ki at FKBP12 (setting [4]) is 1 to 50 nM.

For `O=C(SC(CCc1ccccc1)CCc1ccccc1)C1CCCCN1C(=O)NC1CCCCC1` (stereo not shown) [compound 114], at FKBP12 (setting [4]), the Ki is 1 to 50 nM.

With `COc1ccc(CCCSC(=O)[C@@H]2CCCN2S(=O)(=O)c2ccccc2)cc1` [compound 120, 3-(para-Methoxyphenyl)-1-propylmercaptyl(2S)-N-(benzenesulfonyl)pyrrolidine-2-carboxylate], the Ki on FKBP12 (setting [4]) fell in the range of 51 to 200 nM.

As for `COc1ccc(CCCSC(=O)[C@@H]2CCCN2S(=O)(=O)Cc2ccccc2)cc1` [compound 121, 3-(para-Methoxyphenyl)-1-propylmercaptyl(2S)-N-(a-toluenesulfonyl)pyrrolidine-2-carboxylate], the Ki on FKBP12 (setting [4]) lay within 51 to 200 nM.

On to `COc1ccc(CCCSC(=O)[C@@H]2CCCN2S(=O)(=O)c2ccc(C)cc2)cc1` [compound 122, 3-(para-Methoxyphenyl)-1-propylmercaptyl(2S)-N-(a-toluenesulfonyl)pyrrolidine-2-carboxylate], for which the Ki at FKBP12 (setting [4]) is 201 to 500 nM.

As for `CCC(C)(C)C(=O)C(=O)N1CCC[C@H]1C(=O)OC/C=C/c1cc(OC)ccc1OC` [compound 151, 3-(2,5-dimethoxyphenyl)-1-prop-2-(E)-enyl (2S)-1-(3,3-dimethyl-1,2-dioxopentyl)-2-pyrrolidine-carboxylate], the Ki on FKBP12 (setting [5]) came to 450 nM.

As for `CCC(C)(C)C(=O)C(=O)N1CCC[C@H]1C(=O)OCCCc1cccnc1` [compound 153, 3-(3-Pyridyl)-1-propyl (2S)-1-(3,3-dimethyl-1,2-dioxopentyl)-2-pyrrolidinecarboxylate], the “effect on the right and left major pelvic ganglia as processed for nNOS immunoreactivity” value in the assay on major pelvic ganglia [1] is “protective effect”. Also, the “effect on the right and left major pelvic ganglia as processed for Cresyl Violet staining” value in the assay with major pelvic ganglia [2] is reported as “protective effect”. Besides, the “effect of administration on crushed cavernous nerves” value with cavernous nerve (Example 30, rats, 15 mg/kg i.p. just prior to nerve crush) is given as “regenerate the penile cavernous nerve”. For the same compound, in the assay on cavernous nerve, the “ICP response, Control side” value is on record as 42.8 +/− 1.9 and the “ICP response, Crush side” value is 42.7 +/− 2.2.

As to `CC1(C)COC(=O)CCCCCCCCCCCOC(=O)[C@@H]2CCCCN2C(=O)C1=O` [compound 186, (24aS)-17,17-dimethylperhydropyrido[2,1-c] [1,9,4]dioxazacyclohenicosine-1,14,18,19-tetraone], the Ki on FKBP12 (setting [5]) came to 150 nM.
